# From patent US20040142910A1, “Sulfonated styrene copolymers for medical uses” (Aegis Biosciences LLC, priority 2002, published 2004)
# What was measured:
# [1] = system: calf pulmonary artery ECs (CPAECs); experiment: endothelial cell proliferation in the absence of fibrin; format: cell-based; details: SNAP 0.1 and 0.4 mmol/L, L-NAME, L-NMMA 1 mmol/L
# Procedure: (§1) Angiogenesis is a complex process that involves the activation of quiescent endothelial cells (ECs) to a proliferative and migratory phenotype and, subsequently, their redifferentiation to form vascular tubes. We hypothesized that NO contributes to angiogenesis by terminating the proliferative action of angiogenic growth factors and initiating a genetic program of EC differentiation. Human umbilical vein ECs (HUVECs) and calf pulmonary artery ECs (CPAECs) were grown directly on plastic dishes or on three-dimensional fibrin matrices. […] The addition of basic fibroblast growth factor (bFGF, […]) increased the expression of endothelial NO synthase mRNA and the production of NO in both cell types when cultured on three-dimensional fibrin gels and produced profound morphological changes characterized by the appearance of extensive capillary-like vascular structures and the loss of EC monolayers. These changes were quantified by measuring total tube length per low-power field (X 100), and a differentiation index was derived using the ratio of tube length over area covered by residual EC monolayer. In the absence of additional angiogenic factors, the differentiation index was low for both HUVECs and CPAECs (control, 1.16plus or minus0.19 and 2.07plus or minus0.87, respectively).
# [2] = system: Human umbilical vein ECs (HUVECs); experiment: as above; format: cell-based; details: SNAP 0.1 and 0.4 mmol/L
# Procedure: as §1
# endothelial cells (ECs) = experiment: EC tube formation in response to bFGF; format: cell-based
# Procedure: as §1
# [3] = treatment of asthma; cited from earlier work
# [4] = system: calf pulmonary artery ECs (CPAECs); experiment: EC differentiation on three-dimensional fibrin gels; format: cell-based; details: bFGF 30 ng/nL
# Procedure: as §1
# [5] = system: Human umbilical vein ECs (HUVECs); experiment: as above; format: cell-based; details: bFGF 30 ng/nL
# Procedure: as §1
compound,measurement,setting,value
"CC(=O)N[C@H](C(=O)O)C(C)(C)SN=O (racemic) [SNAP, S-nitroso-N-acetylpenicillamine]",proliferation,[1],dose-dependent inhibition
same,proliferation,[2],dose-dependent inhibition
"COC(=O)[C@@H](N)CCCNC(=N)N[N+](=O)[O-] [L-NAME, N(G)-nitro-L-arginine methyl ester]",EC tube formation in response to bFGF,endothelial cells (ECs),inhibited EC tube formation
same,proliferation,[1],significantly increased
"CNC(=N)NCCC[C@H](N)C(=O)O [L-NMMA, N(G)-monomethyl-L- arginine]",proliferation,[1],significantly increased
Cn1c(=O)c2[nH]cnc2n(C)c1=O [theophylline],minimum effective blood concentrations,[3],6 to 10 µg/mL
bFGF: basic fibroblast growth factor,expression of endothelial NO synthase mRNA and production of NO,[4],increased
same,expression of endothelial NO synthase mRNA and production of NO,[5],increased
